This is an account of results in patent US20110212933A1, “Antiseptic Compositions for the Treatment of Infections” (priority 2008, published 2011).

Data set [1] relates to guinea pigs. As to conditions: Positive Control animals, historical data, cited from earlier work; for Individual Bodyweight Initial: baseline.
Data set [2] has as its system guinea pigs. Particulars: 0.4 mL, historical data, cited from earlier work.
In data set [3] the test system is guinea pigs. Nature of the data set: Dermal sensitization test in guinea pigs (Buehler).
The test system of data set [4] is T. mentagrophytes. The protocol: Phenol Resistance Control: The phenol resistance of Trichophyton mentagrophytes was determined per the AOAC method. Final phenol dilutions were made the day of use from stock phenol within manufacturer's stability specification.
The test system of data set [5] is S. cholerasuis. As for the experimental part:
(§1) Phenol Resistance Control: The phenol resistance of the test organisms were determined per the AOAC method.
(§2) Final phenol dilutions were made the day of use from stock phenol within manufacturer's stability specification.

Data set [6] deals with S. aureus. As for the experimental part:
as §1, §2

Data set [7] deals with P. aeruginosa. As for the experimental part: as §1, §2
Where [8] appears, read: historical positive naive control animals, 0.04% in acetone.
The mark [9] stands for this setting: Dilution 1:60, Exposure Time 5 Minutes.
Where [10] appears, read: Dilution 1:60, Exposure Time 10 Minutes.
[11] abbreviates: Dilution 1:70, Exposure Time 5 Minutes.
The mark [12] stands for this setting: Dilution 1:70, Exposure Time 10 Minutes.
Where [13] appears, read: Dilution 1:90, Exposure Time 5 Minutes.
Setting [14] is: Dilution 1:90, Exposure Time 10 Minutes.
Setting [15] is: Dilution 1:90, Exposure Time 15 Minutes.

Several values for one entry are separate records, joined by “and”; a condition that tells them apart may be missing. Equal values may be shown once. Read-outs that look alike come from different tables or passages of the source. Some results are limits rather than exact numbers.

On to `O=[N+]([O-])c1ccc(Cl)c([N+](=O)[O-])c1` [DNCB, 1-Chloro-2,4-Dinitrobenzene], for which the “Individual Bodyweight Initial” value in data set [1] (female guinea pigs) is 393 g and 404 g and 415 g and 411 g and 408 g and 428 g and 372 g; in data set [1] (male guinea pigs), 406 g (2×) and 379 g and 413 g and 423 g and 408 g and 386 g and 407 g. For the same compound, the “Individual Bodyweight Day After Challenge” value in data set [1] (female guinea pigs) is 568 g and 660 g and 581 g and 536 g and 591 g and 544 g and 609 g; in data set [1] (male guinea pigs) it was 579 g and 544 g and 600 g and 618 g and 668 g and 551 g and 639 g and 599 g. Moreover, the “Preliminary Irritation Testing Score” value in data set [2] (Concentration 0.02% w/w in acetone) was 0; in data set [2] (Concentration 0.03% w/w in acetone), 0 and 0.5; in data set [2] (Concentration 0.04% w/w in acetone), 0 and 0.5. In addition, the “erythema score, induction phase” value in data set [3] (historical positive control animals, 0.08% in 80% aqueous ethanol) was 0.5-3. Besides, in data set [3] (setting [8]), the “sites with very faint erythema (0.5) 24 hours after challenge” value was “two”. Besides, in data set [3] (setting [8]), the “time for irritation to clear from affected sites” value is no more than 48 h.
`Oc1ccccc1` [Phenol, phenol]: the “Phenol Resistance, growth in subculture” value in data set [4] (setting [9]) was 0; in data set [4] (setting [10]) it was 0; in data set [4] (setting [11]), “+”; in data set [4] (setting [12]) it was “+”; in data set [5] (setting [13]) it was “+”; in data set [5] (setting [14]) it was 0. Also, the “Phenol Resistance, growth in subculture” value in data set [5] (setting [15]) was 0; in data set [5] (Dilution 1:100, Exposure Time 5 Minutes), “+”; in data set [5] (Dilution 1:100, Exposure Time 10 Minutes) it was “+”; in data set [5] (Dilution 1:100, Exposure Time 15 Minutes), 0; in data set [6] (setting [9]), “+”; in data set [6] (setting [10]), “+”. The “Phenol Resistance, growth in subculture” value in data set [6] (Dilution 1:60, Exposure Time 15 Minutes) is given as 0; in data set [6] (setting [11]), “+”; in data set [6] (setting [12]), “+”; in data set [6] (Dilution 1:70, Exposure Time 15 Minutes) it was “+”; in data set [7] (Dilution 1:80, Exposure Time 5 Minutes) it was 0; in data set [7] (Dilution 1:80, Exposure Time 10 Minutes), 0. In addition, the “Phenol Resistance, growth in subculture” value is reported as 0 in data set [7] (Dilution 1:80, Exposure Time 15 Minutes); “+” in data set [7] (setting [13]); “+” in data set [7] (setting [14]); “+” in data set [7] (setting [15]).
